Legend:
Type in all cases: cell-based
indicator strains = test: Deferred antagonism assay, producer S. salivarius K12: total strains inhibited; settings: for Total stains inhibited / Total strains inhibited / Total number of strains inhibited: K12
Experimental: (§1) 1-2 producer strain colonies were transferred from a stock plate into 900 μL of suspension solution using a fresh cotton swab. Following this, suspensions were vortexed, and a sample was inoculated onto solid culture media using a fresh cotton swab. The inoculation was a streak that runs diametrically across the agar plate in a 1.5 cm wide strip. The plate was then incubated. Following incubation all visible colonies were removed by swabbing them from the agar surface. The plates were then treated with chloroform by dispensing 2 ml of chloroform onto 4 cm×4 cm piece of cloth and sealing the inverted agar plate on top for 30 minutes. The plates were then air dried for 30 minutes following chloroforming. 1-2 indicator strain colonies were then transferred from a stock plate into complementary suspension solution. The suspensions were then vortexed, and a sample was inoculated onto the same agar surface. These samples were streaked in a perpendicular direction to the initial producer streak.
(§2) Each indicator streak was prepared with fresh a suspension containing cells from a corresponding stock plate containing the indicator strain of interest. Indicator strains suspension samples were transferred using a fresh cotton swab. Results were measured by qualitatively reviewing the subsequent (if any) sizes of the zones of inhibition (ZOI) of indicator strain colony growth. A positive result is when there is a distinctive reduction or complete inhibition of indicator colony growth on the culture medium.
(§3) CABCa agar plates containing various concentrations of saccharide were prepared according to the methods described in Method 1. Producer strains were transferred from stock agar plates into 900 μL THB using a fresh cotton swab. A plastic spread plater was cut to approximately 1.2 cm width and then dipped into ethanol and left to air dry to ensure sterility. A 100 μL sample of the producer strain suspension was then dispensed onto the agar surface in a straight line running diametrically across the agar surface in (approximately) 20 μL spots. The spots were spaced approximately 1.5 cm apart from each other. The plastic spreader was then used to evenly distribute the spots across the agar surface in a 1.5 cm wide strip. This step was taken to ensure an even producer streak was inoculated onto the agar surface and provided an approximate measure of the initial inoculum concentration. Separate plastic spreaders were used for samples containing different producer strains. The samples were left to soak into the agar surface until there was no visible liquid remaining on the agar surface (approximately 20 minutes). Following producer streak preparations, the deferred antagonism assay protocol was followed as per Method 2. Results were recorded by measuring the size of the zone of inhibition (ZOI) in mm.
(§4) A dose response assay was carried out according to method 3 above, except a 1.2 cm streak was used. For the individual saccharide testing the pH of the producer streak was adjusted after the growth of producer to change the acidic conditions.
(§5) A deferred antagonism assay was conducted using K12 or M18 raw ingredient suspended in Todd Hewitt broth (THB). This was spread as a 1.2 cm streak containing approximately 1-2×10^6 cfu down the middle of a CABCa control or CABCa galactose supplemented test plate. After 18 hrs growth at 37° C. with 5% CO2, bacterial growth was removed, and the pH of the agar in the initial streak was measured and adjusted to a pH of 6.5-7.5 using 0.5M sodium carbonate pH11 before sterilizing the agar surface using chloroform vapor. Bacterial test strains were suspended in i-THB before being swabbed across the plates perpendicular to the initial streak. Plates were incubated for a further 18 hrs incubation at 37° C. with 5% CO2 before measuring (mm) any zones of inhibition for each test strain, […]

S. mutans OMZ175 = test: Deferred antagonism assay, producer S. salivarius M18
Experimental: as §1, §2, §3, §4, §5

[1] = tested on: bacterial indicator strains; test: Split plate inhibitory activity of K12 in infant formula or whole milk powder (overall); settings: galactose 0.5% w/w or raffinose 2.5% w/w added
Experimental: The following method was used to measure the inhibitory effect of S. salivarius K12 in the context of the powder formulations. Exactly 40 mL of 50° C. molten CAB agar containing 0.5% calcium carbonate (CABCa) was poured in agar plates (120×120 mm). Once the agar was set upon cooling, it was split in the middle and half of the agar gel was removed. The other half was left on the plate as Blank agar marked as side “A”. Approximately, 0.8 g of each combination (DDJ powder with (1) galactose, (2) raffinose or (3) combination of raffinose and galactose) was mixed with 1 mL of sterile distilled water and vortexed to produce a homogeneous suspension. 100 μl of the suspension was reserved for spreading on the surface of agar (producer side B). The remaining suspension was then mixed with 20 mL of molten CABCa agar and the mixture was poured into the empty half of the agar plate to form producer side “B”. The 100 μL of the reserved suspension was spread over the surface on side B and the plates were incubated for 18 h, 37° C., 5% CO2 in air. […] The pH of the producer side was measured and adjusted to 6.5-7.5 by soaking into the agar a solution of 0.5 M sodium carbonate pH 11. […] The zone of inhibition of each indicator strain was measured (in mm) using a ruler. Results were also read using a macroscope to establish presence of small colonies or complete inhibition zones. […]

## O=C[C@H](O)[C@@H](O)[C@@H](O)[C@H](O)CO [Galactose, D-galactose]
Indicator strains; Galactose 0.5% w/w
  Total stains inhibited: 5/6
Indicator strains; Galactose 1.25% w/w
  Total stains inhibited: 5/7
Indicator strains; Galactose 1.7% w/w
  Total stains inhibited: 4/7
Indicator strains; Galactose 2.5% w/w
  Total stains inhibited: 4/7
Indicator strains; Galactose 3.3% w/w
  Total stains inhibited: 2/7
Indicator strains; Galactose 5% w/w
  Total stains inhibited: 0/7
Indicator strains; saccharide 3.3% w/v
  Total strains inhibited: 0/3
Indicator strains; saccharide range 0.83%-3.3% w/v
  Total strains inhibited: 1/3
Indicator strains; only at 0.5% w/w Galactose
  inhibitory activity (potency) and spectrum of Blis K12 and Blis M18: enhanced inhibitory activity
S. mutans OMZ175; Streptococcus mutans, OMZ175, M18, Galactose 0.5% w/w, read-out: Size of zone inhibition normalised to control, S. mutans OMZ175
  zone of inhibition at 0.5 % strength: 16 mm
S. mutans OMZ175; Streptococcus mutans, OMZ175, M18, Galactose 1.25% w/w, read-out: Size of zone inhibition normalised to control, S. mutans OMZ175
  zone of inhibition at 1.25 % strength: 0 mm
S. mutans OMZ175; Streptococcus mutans, OMZ175, M18, Galactose 1.7% w/w, read-out: Size of zone inhibition normalised to control, S. mutans OMZ175
  zone of inhibition at 1.7 % strength: 0 mm
S. mutans OMZ175; Streptococcus mutans, OMZ175, M18, Galactose 2.5% w/w, read-out: Size of zone inhibition normalised to control, S. mutans OMZ175
  zone of inhibition at 2.5 % strength: 0 mm
S. mutans OMZ175; Streptococcus mutans, OMZ175, M18, Galactose 3.3% w/w, read-out: Size of zone inhibition normalised to control, S. mutans OMZ175
  zone of inhibition at 3.3 % strength: 6 mm
S. mutans OMZ175; Streptococcus mutans, OMZ175, M18, Galactose 5% w/w, read-out: Size of zone inhibition normalised to control, S. mutans OMZ175
  zone of inhibition at 5 % strength: 0 mm
[1]
  inhibitory activity of K12 in infant formula compared to the control: reduction in inhibitory activity

## OC[C@H]1O[C@H](OC[C@H]2O[C@H](O[C@]3(CO)O[C@H](CO)[C@@H](O)[C@@H]3O)[C@H](O)[C@@H](O)[C@@H]2O)[C@H](O)[C@@H](O)[C@H]1O [Raffinose, D-(+) Raffinose pentahydrate]
Indicator strains; Raffinose 1.7% wt
  Total number of strains inhibited: 6
Indicator strains; Raffinose 1.7% wt, pH adjusted
  Total number of strains inhibited: 5
Indicator strains; Raffinose 2.5% wt
  Total number of strains inhibited: 7
Indicator strains; Raffinose 2.5% wt, pH adjusted
  Total number of strains inhibited: 6
Indicator strains; Raffinose 3.3% wt
  Total number of strains inhibited: 5
Indicator strains; Raffinose 3.3% wt, pH adjusted
  Total number of strains inhibited: 5
Indicator strains; Raffinose 5% wt
  Total number of strains inhibited: 6
Indicator strains; Raffinose 5% wt, pH adjusted
  Total number of strains inhibited: 6
Indicator strains; Raffinose 10% wt
  Total number of strains inhibited: 6
Indicator strains; Raffinose 10% wt, pH adjusted
  Total number of strains inhibited: 6
Indicator strains; saccharide 3.3% w/v
  Total strains inhibited: 3/3
Indicator strains; saccharide range 2.5%-10% w/v
  Total strains inhibited: 3/3
Indicator strains; Raffinose 1.7, 2.5, 3.3 and 5%, K12 or M18
  number of the indicators tested inhibited: at least 7
Indicator strains; Raffinose (2.5%)
  inhibitory spectrum of K12 or M18: inhibit several ENTR, dental and skin pathogens and S. salivarius strains
S. mutans OMZ175; 0.5, 1.25, 2.5, and 5% w/v raffinose added
  sensitivity of S. mutans OMZ175 to M18: sensitive
S. mutans OMZ175; M18, Raffinose 1.7% wt
  Zone of inhibition S. mutans OMZ175: 22 mm
S. mutans OMZ175; M18, Raffinose 1.7% wt, pH adjusted
  Zone of inhibition S. mutans OMZ175: 21 mm
S. mutans OMZ175; M18, Raffinose 2.5% wt
  Zone of inhibition S. mutans OMZ175: 20 mm
S. mutans OMZ175; M18, Raffinose 2.5% wt, pH adjusted
  Zone of inhibition S. mutans OMZ175: 19 mm
S. mutans OMZ175; M18, Raffinose 3.3% wt
  Zone of inhibition S. mutans OMZ175: 21 mm
S. mutans OMZ175; M18, Raffinose 3.3% wt, pH adjusted
  Zone of inhibition S. mutans OMZ175: 17 mm
S. mutans OMZ175; M18, Raffinose 5% wt
  Zone of inhibition S. mutans OMZ175: 19 mm
S. mutans OMZ175; M18, Raffinose 5% wt, pH adjusted
  Zone of inhibition S. mutans OMZ175: 16 mm
S. mutans OMZ175; M18, Raffinose 10% wt
  Zone of inhibition S. mutans OMZ175: 0 mm
S. mutans OMZ175; M18, Raffinose 10% wt, pH adjusted
  Zone of inhibition S. mutans OMZ175: 0 mm
[1]
  inhibitory activity of K12 in infant formula compared to the control: reduction in inhibitory activity

— patent US20240390434A1, “PROBIOTIC ENHANCERS AND USES THEREOF” (Blis Technologies Limited, priority 2021, published 2024)
